Laboratory results taken from patent US10822315B2, “5-benzylidene-4-oxazolidinones” (NORTH CAROLINA STATE UNIVERSITY, priority 2016, dated 2020).
≈ marks a conversion by molar mass, not a printed value.

How the values were obtained:
MRSA Strain 1770 [1] = experiment: Biofilm inhibition assay (crystal violet); assay type: cell-based, Staphylococcus aureus; details: for inhibition at 5 µM / inhibition at 40 µM: Staphylococcus aureus, read-out: % Biofilm Inhibition (5/40 μM)
Method: (§1) General Information. Methicillin-resistant Staphylococcus aureus (MRSA) strains were obtained from the Laboratory of Professor Christian Melander (NCSU) ATCC (33591, BAA 44, BAA 1685, BAA 1770, BAA 43 300) and colonies were grown on solid media as instructed. Mueller-Hinton broth (MHB, 211443-BD), tryptic soy broth (TSB, Remel: R455052) and D-glucose (CAS: 492-62-6) were purchased from Fisher Scientific. Tryptic soy agar (TSA, cat. #22091) and Linezolid (cat. # P70014) were purchased from Sigma-Aldrich. Bacteria for biofilm inhibition and dispersion assays were cultured overnight in TSBG (tryptic soy broth with 0.5% glucose supplement). All assays were run in duplicate and repeated at least two separate times for MIC assays and at least four separate times for biofilm inhibition and dispersion assays. All compounds were dissolved molecular biology grade DMSO as 100 mM stock solutions and further diluted to 10 and 1 mM stock solutions as needed. Optical densities were measured using a Thermo Scientific Genesys 20 spectrophotometer. Data for biofilm inhibition and dispersion assays was collected using a BioTek ELx808 Microplate Reader. All graphs were generated and analyzed using GraphPad Prism 7.
(§2) Biofilm Inhibition Assay. Studies were performed using the standard method described in S. A. Rogers and C. Melander, Angew Chem Int Ed, 2008, 47, 5229-5231. Briefly, biofilm inhibition assays were performed by taking an overnight culture of bacterial strain and subculturing it at an OD600 of 0.01 into the necessary growth liquid medium (LB for A. baumannii, LBNS for P. aeruginosa, Stainer-Scholte medium that was supplemented with 10 μL/mL of 100× nutrient complex for B. bronchiseptica and TSB w/0.3% glucose for S. aureus) for the strain. The compound being tested was then added at a predetermined concentration and then aliquoted (100 μL) into the wells of a 96-well PVC microtiter plate (wells not used for samples are filled with 100 μL of de-ionized water). Plates were then wrapped in GLAD Press n' Seal and incubated under stationary conditions at 37° C. After 24 hours, the media was discarded from the wells and the plates were washed thoroughly with tap water. Plates were then stained with 100 μL of 0.1% solution of crystal violet (CV) and then incubated at an ambient temperature for 30 minutes. Sample plates were then washed with tap water again and the remaining stain was solubilized with 200 μL of 95% ethanol. Biofilm inhibition was quantitated by measuring the OD540 for each well by transferring 125 μL of the solubilized CV stain into a polystyrene microtiter dish for analysis. Biofilm inhibition was quantified by measuring the OD540 of each well and calculated as a percentage of the control (no compound); a negative control lane wherein no biofilm was formed served as a background and was subtracted out.
(§3) Percent inhibition was then plotted against concentration in Prism 7. Each of the four experiments were plotted separately and analyzed by a normalized nonlinear regression. The IC50 values reported represent an arithmetic mean of the four IC50 values. Biofilm data represent four separate experiments, with each experiment performed in duplicate (average of 8 data points for each concentration tested, unless otherwise noted)

MRSA ATCC BAA-44 [2] = experiment: Biofilm inhibition assay (crystal violet); assay type: cell-based, Staphylococcus aureus; details: for IC50: MRSA ATCC BAA-44; for inhibition at 5 µM: MRSA ATCC BAA 44; for dose dependence of biofilm inhibition (in words): relative to MIC
Method: as §1, §2, §3

MRSA ATCC BAA-44 [3] = experiment: Biofilm dispersion assay (crystal violet, pre-formed biofilm); assay type: cell-based, Staphylococcus aureus; details: for % dispersion of pre-formed biofilm: 40 μM; for IC50: MRSA ATCC BAA-44; for % dispersion of pre-formed biofilm at 5 µM: MRSA ATCC BAA 44
Method: as §1
Biofilm Dispersion Assay. Studies were performed using the standard method described in J. J. Richards, T. E. Ballard and C. Melander, Org Biomol Chem, 2008, 6, 1356-1363. Briefly, dispersion assays were performed by taking an overnight culture of bacterial strain and subculturing it at an OD600 of 0.01 into the necessary growth liquid medium. The resulting bacterial suspension was aliquoted (100 μL) into the wells of a 96-well PVC microtiter plate. Plates were then wrapped in GLAD Press n' Seal followed by an incubation under stationary conditions at an ambient temperature. After 24 hours, the media was discarded from the wells and the plates were washed thoroughly with tap water. Predetermined concentrations of the test compound were then made in the same medium used to initially grow the biofilms and then aliquoted (100 μL) into the wells of the 96-well PVC microtiter plate with the established biofilms. Plates were then wrapped in GLAD Press n'Seal and incubated under stationary conditions at 37° C. After 24 hours, the media was discarded from the wells and the plates were washed thoroughly with tap water. Plates were then stained with 100 μL of 0.1% solution of crystal violet (CV) and then incubated at room temperature for 30 minutes. Plates were then washed with tap water again and the remaining stain was solubilized with 200 μL of 95% ethanol. Biofilm dispersion was quantitated by measuring the OD540 for each well by transferring 125 μL of the solubilized CV stain into a polystyrene microtiter dish for analysis. Biofilm inhibition was quantified by measuring the OD540 of each well and calculated as a percentage of the control (no compound), a negative control lane wherein no biofilm was formed served as a background and was subtracted out.
as §3, with “dispersion” for “inhibition”

MRSA Strain 1685 = experiment: Broth microdilution MIC determination; assay type: cell-based; details: Staphylococcus aureus
Method: as §1
(§4) Broth microdilution protocol for minimum inhibition concentration (MIC) determination. Studies were performed using the standard method prescribed by the Clinical and Laboratory Standards Institute (CLSI) M07-A8, Vol. 29 (2), which is hereby incorporated herein by reference. Briefly, fresh Mueller-Hinton broth (MHB) ˜3 ml, was inoculated (5×10^5 CFU mL^−1) with MRSA (ATCC 33591) methicillin-resistant Staphylococcus aureus. The resulting bacterial suspension was aliquoted (1 mL) into culture tubes and test compound (10 mM DMSO stock solution) was added to reach the final concentration of the interest. Bacteria not treated with the antimicrobial compound served as the control. Rows 2-12 of a 96-well microtiter plate were filled with remaining bacterial subcultures. The samples containing test compound were aliquoted (200 μL) into the first row wells of the microtiter plate (2 wells per compound). Row 1 wells were mixed 6-8 times and 100 μL was transferred down to row 2. Row 2 wells were mixed 6-8 times, followed by a 100 μL transfer from row 2 down to row 3. The rest of the rows of the plate were serially diluted in similar fashion. The plate was covered with sealing tape for 96-well plates (ThermoFisher) and incubated under stationary conditions at 37° C. A duplicate of the plate was prepared.

MRSA Strain 1770 [4] = experiment: Broth microdilution MIC determination; assay type: cell-based; details: Staphylococcus aureus
Method: as §1, §4

MRSA Strain 43300 = experiment: Broth microdilution MIC determination; assay type: cell-based; details: Staphylococcus aureus
Method: as §1, §4

MRSA ATCC 33591 = experiment: Broth microdilution MIC determination; assay type: cell-based; details: Staphylococcus aureus, Table 1, read-out: Antimicrobial Activity MIC
Method: as §1, §4

Structure (SMILES)	inhibition at 5 µM (MRSA Strain 1770 [1]) [%]	inhibition at 40 µM (MRSA Strain 1770 [1]) [%]	IC50 (MRSA ATCC BAA-44 [2]) [nM]	inhibition at 5 µM (MRSA ATCC BAA-44 [2]; Staphylococcus aureus) [%]	IC50 (MRSA ATCC BAA-44 [2]; Staphylococcus aureus) [nM]	dose dependence of biofilm inhibition (in words) (MRSA ATCC BAA-44 [2])	% dispersion of pre-formed biofilm (MRSA ATCC BAA-44 [3]) [%]	IC50 (MRSA ATCC BAA-44 [3]) [nM]	% dispersion of pre-formed biofilm at 5 µM (MRSA ATCC BAA-44 [3]; Staphylococcus aureus) [%]	IC50 (MRSA ATCC BAA-44 [3]; Staphylococcus aureus) [nM]	MIC (MRSA Strain 1685) [µg/mL]	MIC (MRSA Strain 1770 [4]) [µg/mL]	MIC (MRSA Strain 43300) [µg/mL]	MIC (MRSA ATCC 33591) [µg/mL]	biofilm inhibition activity (in words) (MRSA Strain 1770 [1])
CCCCC(Cl)(Cl)C1NC(=O)/C(=C/c2ccc(C(F)(F)F)cc2)O1 (stereo not shown) [Compound 1, (Z)-2-(1,1-dichloropentyl)-5-(4-(trifluoromethyl)benzylidene)oxazolidin-4-one]	49	66	1000	89	780	dose-dependent biofilm inhibition at concentrations well below their MIC	87	5700	59	4700	16 (≈ 41.9 µM)	16 (≈ 41.9 µM)	8 (≈ 20.9 µM)	12 (≈ 31.4 µM)	
O=C1NC(C(Cl)(Cl)Cc2ccccc2)O/C1=C\c1ccc(C(F)(F)F)cc1 (stereo not shown) [Compound 2, (Z)-2-(1,1-dichloro-2-phenylethyl)-5-(4-(trifluoromethyl)benzylidene)oxazolidin-4-one]	3	-16	1400	82	1200	dose-dependent biofilm inhibition at concentrations well below their MIC	69		57	4300	8 (≈ 19.2 µM)	8 (≈ 19.2 µM)	8 (≈ 19.2 µM)	6 (≈ 14.4 µM)	virtually no activity
